Data taken from US20070254312A1, “Protein Kinase Inhibitors and Methods for Identiying Same” (priority 2004, published 2007).
Like-named read-outs stand apart in the source and are kept apart here. Starred links: 1 amine or outer side, 2 acyl side, 3 side chain; linkers in the order of their positions; H or OH if unused. Non-standard residues stand in square brackets, D forms with d. Residues, ends and D or L forms follow the SMILES beside them. Groups on a side chain read outwards from the residue. *: point of attachment. X2 = N=C(N)NCCC[C@@H](C(=O)*)N(Cc1cccc(O)c1O)Cc1cccc(O)c1O; X1 = N=C(N)NCCC[C@@H](C(=O)[*:2])N(Cc1cccc(O)c1O)[*:1]; Benzoyl(4-NO2) = O=C(c1ccc([N+](=O)[O-])cc1)*; Cysteamide = C(CS[*:3])N[*:1]; Dap = NC[C@H](N)C(=O)O

Tests used:
[1] = molecular target: T1, PKCδ (Homo sapiens, UniProt Q05655); assay: PKC δ screen, IC50 and Ki determination (Example 2); assay type: biochemical; design: purchased Panvera; conditions: for Fold selectivity (IC50), PKC δ: relative to most potently inhibited isoform (=1): δ for F, ζ for G
T1 sequence (Q05655 whole entry, canonical isoform): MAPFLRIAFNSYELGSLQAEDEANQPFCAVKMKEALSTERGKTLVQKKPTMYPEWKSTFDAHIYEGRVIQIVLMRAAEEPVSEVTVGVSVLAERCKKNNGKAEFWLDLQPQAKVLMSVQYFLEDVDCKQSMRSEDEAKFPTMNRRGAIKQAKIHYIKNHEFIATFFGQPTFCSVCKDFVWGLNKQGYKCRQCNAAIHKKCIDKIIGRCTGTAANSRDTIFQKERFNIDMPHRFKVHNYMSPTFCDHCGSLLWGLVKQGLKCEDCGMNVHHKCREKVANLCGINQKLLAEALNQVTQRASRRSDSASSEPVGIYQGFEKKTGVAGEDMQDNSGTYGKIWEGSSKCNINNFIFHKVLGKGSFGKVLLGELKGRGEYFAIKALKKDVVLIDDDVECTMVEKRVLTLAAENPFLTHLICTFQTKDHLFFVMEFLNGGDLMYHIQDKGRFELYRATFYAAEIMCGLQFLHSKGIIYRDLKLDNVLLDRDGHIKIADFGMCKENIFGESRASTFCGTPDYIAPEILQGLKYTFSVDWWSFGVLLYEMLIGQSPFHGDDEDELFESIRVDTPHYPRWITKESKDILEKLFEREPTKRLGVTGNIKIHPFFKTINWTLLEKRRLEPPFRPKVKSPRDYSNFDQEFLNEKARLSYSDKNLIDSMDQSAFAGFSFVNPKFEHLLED
Protocol: (§1) Protein Kinase C Assays. The peptides […] (for PKC α, β and γ) and […] (for PKC δ, ε, θ, η, τ, and ζ) were used as substrates. […] Total reaction volume in each well was 50 μL. […] Following an additional 5 min incubation at ambient temperature, 75 μL from each reaction well was transferred into each well of a Unifilter (P81 cellulose phosphate paper) assay plate and washed four times with 0.1% phosphoric acid in water. […] Lead compounds from the library were combined into a single 96 well plate and re-assayed as described above in order to identify the best inhibitor. IC50 determinations of resynthesized inhibitor leads for individual PKC isoforms. Assays were performed in triplicate at pH 7.5 and thermostatically maintained at 30° C. using a Boekel constant temperature device. […] The IC50 values for pure compounds as inhibitors were calculated based on the experimental data using GraFit (Erithacus Software Limited). Protein kinase C δ, ε, θ, and η: As described for PKC α, β, and γ except that the assay was performed in the absence of CaCl2. Protein kinase C τ and ζ: As described for PKC α, β, and γ except that the assay was performed in the absence of CaCl2 and DAG. […] Total reaction volume in each well was 50 μL. All the wells were tested in the same plate and each concentration was tested in triplicate. […] Double reciprocal plots were obtained at different concentrations of substrates. Ki values were calculated using Enzyme Kinetics, SigmaPlot (SPSS Inc.).

[2] = molecular target: T2, PKCζ (Homo sapiens, UniProt Q05513); assay: PKC ζ screen, IC50 and Ki determination (Example 2); assay type: biochemical; design: purchased Panvera; conditions: for Fold selectivity (IC50), PKC ζ: relative to most potently inhibited isoform (=1): δ for F, ζ for G
T2 sequence (Q05513 1-592): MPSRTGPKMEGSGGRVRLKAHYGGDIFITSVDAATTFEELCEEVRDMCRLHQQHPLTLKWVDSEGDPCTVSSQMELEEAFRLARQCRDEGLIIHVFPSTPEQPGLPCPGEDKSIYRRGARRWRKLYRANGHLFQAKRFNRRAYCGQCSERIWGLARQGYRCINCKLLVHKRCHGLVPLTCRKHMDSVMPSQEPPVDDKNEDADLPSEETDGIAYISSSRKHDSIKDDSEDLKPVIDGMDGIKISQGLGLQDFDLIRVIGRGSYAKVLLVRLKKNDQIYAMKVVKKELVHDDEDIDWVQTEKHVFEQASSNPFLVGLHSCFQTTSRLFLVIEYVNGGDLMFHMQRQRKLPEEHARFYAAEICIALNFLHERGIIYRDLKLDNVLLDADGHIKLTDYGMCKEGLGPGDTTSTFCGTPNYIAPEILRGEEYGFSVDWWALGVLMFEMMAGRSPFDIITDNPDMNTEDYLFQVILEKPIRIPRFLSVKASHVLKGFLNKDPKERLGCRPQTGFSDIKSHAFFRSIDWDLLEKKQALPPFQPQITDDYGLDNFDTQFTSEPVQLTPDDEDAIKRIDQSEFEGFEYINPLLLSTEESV
Protocol: as §1

[3] = molecular target: PKCθ (Homo sapiens, UniProt Q04759); assay: IC50 determination for individual PKC isoforms (Example 2); assay type: biochemical; design: purchased Panvera; conditions: for Fold selectivity (IC50), PKC θ: relative to most potently inhibited isoform (=1): δ for F, ζ for G
PKCθ, sequence (Q04759 whole entry, canonical isoform): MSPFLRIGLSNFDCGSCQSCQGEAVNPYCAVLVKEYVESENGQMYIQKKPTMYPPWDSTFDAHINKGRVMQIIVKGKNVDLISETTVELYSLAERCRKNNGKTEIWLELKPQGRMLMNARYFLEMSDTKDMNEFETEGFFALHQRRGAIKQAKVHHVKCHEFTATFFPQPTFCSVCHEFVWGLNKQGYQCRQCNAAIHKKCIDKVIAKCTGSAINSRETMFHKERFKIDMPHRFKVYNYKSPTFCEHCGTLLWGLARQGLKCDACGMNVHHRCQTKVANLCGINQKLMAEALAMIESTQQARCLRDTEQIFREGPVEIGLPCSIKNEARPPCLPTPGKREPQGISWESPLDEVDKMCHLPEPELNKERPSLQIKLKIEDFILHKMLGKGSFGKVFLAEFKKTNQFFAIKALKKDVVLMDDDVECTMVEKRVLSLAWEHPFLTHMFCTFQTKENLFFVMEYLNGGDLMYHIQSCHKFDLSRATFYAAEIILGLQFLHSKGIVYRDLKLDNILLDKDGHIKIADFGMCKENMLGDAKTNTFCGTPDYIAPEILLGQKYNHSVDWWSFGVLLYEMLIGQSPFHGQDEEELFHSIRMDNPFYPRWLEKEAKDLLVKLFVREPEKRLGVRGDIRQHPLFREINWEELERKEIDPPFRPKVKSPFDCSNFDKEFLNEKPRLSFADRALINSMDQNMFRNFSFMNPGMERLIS
Protocol: (§2) Protein Kinase C Assays. The peptides […] (for PKC α, β and γ) and […] (for PKC δ, ε, θ, η, τ, and ζ) were used as substrates. IC50 determinations of resynthesized inhibitor leads for individual PKC isoforms. Assays were performed in triplicate at pH 7.5 and thermostatically maintained at 30° C. using a Boekel constant temperature device. […] The IC50 values for pure compounds as inhibitors were calculated based on the experimental data using GraFit (Erithacus Software Limited). Protein kinase C δ, ε, θ, and η: As described for PKC α, β, and γ except that the assay was performed in the absence of CaCl2. Protein kinase C τ and ζ: As described for PKC α, β, and γ except that the assay was performed in the absence of CaCl2 and DAG.

[4] = molecular target: T3, PKCε (Homo sapiens, UniProt Q02156); assay: as above; assay type: biochemical; design: purchased Panvera; conditions: for Fold selectivity (IC50), PKC ε: relative to most potently inhibited isoform (=1): δ for F, ζ for G
T3 sequence (Q02156 1-737): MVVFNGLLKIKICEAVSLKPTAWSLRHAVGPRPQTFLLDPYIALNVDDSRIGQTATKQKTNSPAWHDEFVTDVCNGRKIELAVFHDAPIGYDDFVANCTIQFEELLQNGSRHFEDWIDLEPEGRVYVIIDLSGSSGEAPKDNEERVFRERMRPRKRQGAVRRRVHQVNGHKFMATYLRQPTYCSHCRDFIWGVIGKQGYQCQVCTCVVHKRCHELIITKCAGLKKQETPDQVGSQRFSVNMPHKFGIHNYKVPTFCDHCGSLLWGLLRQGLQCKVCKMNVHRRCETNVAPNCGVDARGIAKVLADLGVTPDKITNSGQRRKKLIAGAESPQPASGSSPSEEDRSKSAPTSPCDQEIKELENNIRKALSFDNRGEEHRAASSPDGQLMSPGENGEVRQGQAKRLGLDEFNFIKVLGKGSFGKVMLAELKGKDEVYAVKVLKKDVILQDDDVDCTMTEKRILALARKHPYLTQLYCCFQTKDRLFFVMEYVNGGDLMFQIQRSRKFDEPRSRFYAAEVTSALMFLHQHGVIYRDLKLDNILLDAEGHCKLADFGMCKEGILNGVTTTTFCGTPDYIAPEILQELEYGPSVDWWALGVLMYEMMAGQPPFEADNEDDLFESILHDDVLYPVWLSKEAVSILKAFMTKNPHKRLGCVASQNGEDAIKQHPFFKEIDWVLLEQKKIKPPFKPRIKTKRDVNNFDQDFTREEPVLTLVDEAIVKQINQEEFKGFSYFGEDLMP
Protocol: as §2

[5] = molecular target: PKCγ (Homo sapiens, UniProt P05129); assay: as above; assay type: biochemical; design: purchased Panvera; conditions: for Fold selectivity (IC50), PKC γ: relative to most potently inhibited isoform (=1): δ for F, ζ for G
Protocol: as §2

[6] = molecular target: PKCη (Homo sapiens, UniProt P24723); assay: as above; assay type: biochemical; design: purchased Panvera; conditions: for Fold selectivity (IC50), PKC η: relative to most potently inhibited isoform (=1): δ for F, ζ for G
PKCη, sequence (P24723 whole entry, canonical isoform): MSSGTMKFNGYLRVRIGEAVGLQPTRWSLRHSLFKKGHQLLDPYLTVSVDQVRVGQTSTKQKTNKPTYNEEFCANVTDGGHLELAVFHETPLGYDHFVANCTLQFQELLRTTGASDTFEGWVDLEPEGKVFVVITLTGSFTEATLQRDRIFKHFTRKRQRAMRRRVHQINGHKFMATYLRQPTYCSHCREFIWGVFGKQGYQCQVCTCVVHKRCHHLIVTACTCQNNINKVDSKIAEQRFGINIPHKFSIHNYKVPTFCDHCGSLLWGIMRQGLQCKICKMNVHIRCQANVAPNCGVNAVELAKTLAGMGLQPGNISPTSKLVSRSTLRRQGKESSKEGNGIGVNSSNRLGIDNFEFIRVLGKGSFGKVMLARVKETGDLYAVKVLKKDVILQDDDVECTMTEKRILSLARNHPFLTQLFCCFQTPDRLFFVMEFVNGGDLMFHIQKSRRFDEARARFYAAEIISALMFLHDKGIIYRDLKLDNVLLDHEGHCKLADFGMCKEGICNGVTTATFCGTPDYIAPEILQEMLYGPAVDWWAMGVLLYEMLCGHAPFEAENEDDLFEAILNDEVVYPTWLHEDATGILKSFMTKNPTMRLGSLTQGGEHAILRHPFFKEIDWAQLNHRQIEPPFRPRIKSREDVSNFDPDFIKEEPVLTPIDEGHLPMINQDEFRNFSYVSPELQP
Protocol: as §2

[7] = molecular target: T4, PKC βI (Homo sapiens, UniProt P05771); assay: as above; assay type: biochemical; conditions: for Fold selectivity (IC50), PKC β1: relative to most potently inhibited isoform (=1): δ for F, ζ for G
T4 construct: purchased Panvera
T4 sequence (P05771 whole entry, canonical isoform): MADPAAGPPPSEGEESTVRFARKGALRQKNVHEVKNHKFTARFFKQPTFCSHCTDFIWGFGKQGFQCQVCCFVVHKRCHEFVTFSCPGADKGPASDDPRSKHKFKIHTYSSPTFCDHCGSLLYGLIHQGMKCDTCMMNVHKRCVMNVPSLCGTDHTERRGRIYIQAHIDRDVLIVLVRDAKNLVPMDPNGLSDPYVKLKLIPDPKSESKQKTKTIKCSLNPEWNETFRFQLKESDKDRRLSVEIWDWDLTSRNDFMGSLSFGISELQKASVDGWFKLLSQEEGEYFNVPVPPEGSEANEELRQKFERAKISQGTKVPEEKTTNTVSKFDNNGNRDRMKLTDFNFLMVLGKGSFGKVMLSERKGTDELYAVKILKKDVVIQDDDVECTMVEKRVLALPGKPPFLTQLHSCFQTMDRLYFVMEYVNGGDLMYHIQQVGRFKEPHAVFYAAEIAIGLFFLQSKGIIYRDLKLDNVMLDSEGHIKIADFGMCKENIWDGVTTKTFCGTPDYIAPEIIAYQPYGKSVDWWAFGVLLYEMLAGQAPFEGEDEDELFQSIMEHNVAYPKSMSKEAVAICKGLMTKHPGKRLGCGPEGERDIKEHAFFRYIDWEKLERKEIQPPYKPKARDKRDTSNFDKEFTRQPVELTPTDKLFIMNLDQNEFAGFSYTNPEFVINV
Protocol: as §2

[8] = molecular target: T5, PKC ι (Homo sapiens, UniProt P41743); assay: as above; assay type: biochemical; conditions: for Fold selectivity (IC50), PKC ι: relative to most potently inhibited isoform (=1): δ for F, ζ for G, text prints τ
T5 construct: purchased Panvera
T5 sequence (P41743 1-596): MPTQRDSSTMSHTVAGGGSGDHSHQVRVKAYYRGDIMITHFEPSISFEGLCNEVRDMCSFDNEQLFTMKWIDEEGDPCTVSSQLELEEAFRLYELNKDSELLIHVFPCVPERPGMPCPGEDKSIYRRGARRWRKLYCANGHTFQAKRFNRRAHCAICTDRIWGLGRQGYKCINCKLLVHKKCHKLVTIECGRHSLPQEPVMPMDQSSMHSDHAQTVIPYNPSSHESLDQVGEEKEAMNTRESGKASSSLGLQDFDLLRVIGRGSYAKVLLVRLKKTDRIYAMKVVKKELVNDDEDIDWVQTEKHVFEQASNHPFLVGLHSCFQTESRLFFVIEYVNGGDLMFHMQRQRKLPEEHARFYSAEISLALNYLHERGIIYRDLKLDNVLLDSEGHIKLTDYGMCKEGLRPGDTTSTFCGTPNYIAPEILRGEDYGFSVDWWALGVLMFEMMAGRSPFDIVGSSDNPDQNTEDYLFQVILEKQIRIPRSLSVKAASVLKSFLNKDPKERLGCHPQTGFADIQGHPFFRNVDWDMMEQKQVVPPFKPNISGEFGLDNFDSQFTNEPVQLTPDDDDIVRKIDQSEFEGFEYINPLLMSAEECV
Protocol: as §2

[9] = molecular target: T6, PKCα (Homo sapiens, UniProt P17252); assay: as above; assay type: biochemical; conditions: for Fold selectivity (IC50), PKC α: relative to most potently inhibited isoform (=1): δ for F, ζ for G
Protocol: as §2

[10] = molecular target: PKC β1 (Homo sapiens, UniProt P05771); conditions: literature values; relative to most potently inhibited isoform (=1); cited from earlier work
PKC β1, sequence (P05771 whole entry, canonical isoform): as the sequence (P05771 whole entry, canonical isoform) above

[11] = molecular target: T3, PKCε; design: purchased Panvera; conditions: literature values; relative to most potently inhibited isoform (=1); cited from earlier work
[12] = molecular target: T1, PKCδ; design: purchased Panvera; conditions: literature values; relative to most potently inhibited isoform (=1); cited from earlier work
[13] = molecular target: T6, PKCα; conditions: cited from earlier work
[14] = molecular target: T2, PKCζ; design: purchased Panvera; conditions: literature values; relative to most potently inhibited isoform (=1); cited from earlier work

| IC50 [1] [nM] | Fold selectivity (IC50), PKC δ [1] [fold] | Fold selectivity (IC50), PKC ζ [2] [fold] | Fold selectivity (IC50), PKC θ [3] [fold] | Fold selectivity (IC50), PKC ε [4] [fold] | Fold selectivity (IC50), PKC γ [5] [fold] | Fold selectivity (IC50), PKC η [6] [fold] | Fold selectivity (IC50), PKC β1 [7] [fold] | Fold selectivity (IC50), PKC ι [8] [fold] | Fold selectivity (IC50), PKC α [9] [fold] | SMILES | further results |
| --- | --- | --- | --- | --- | --- | --- | --- | --- | --- | --- | --- |
| 50000 | – | – | – | – | – | – | – | – | – | CSCC[C@H](NC(=O)[C@H](Cc1ccccc1)NC(=O)[C@H](CNC(C)=O)NC(=O)CNC(=O)[C@H](CCC(N)=O)NC(=O)[C@H](CCCNC(=N)N)NC(=O)[C@H](CCCNC(=N)N)NC(C)=O)C(=O)N[C@@H](Cc1ccc(O)cc1)C(=O)N[C@@H](Cc1ccccc1)C(=O)NCCS [Compound A] (Ac-RRQG[Dap](Ac)FMYF-Cysteamide) | – |
| 25 ± 2 | – | – | – | – | – | – | – | – | – | CSCC[C@H](NC(=O)[C@H](Cc1ccccc1)NC(=O)[C@H](CNC(=O)CNC(=O)c1ccc([N+](=O)[O-])cc1)NC(=O)CNC(=O)[C@H](CCC(N)=O)NC(=O)[C@H](CCCNC(=N)N)NC(=O)[C@@H](N)CCCNC(=N)N)C(=O)N[C@@H](Cc1ccc(O)cc1)C(=O)N[C@@H](Cc1ccccc1)C(=O)NCCS [Compound E] (H-RRQG[Dap]([Gly-Benzoyl(4-NO2)])FMYF-Cysteamide) | Selectivity (Compound E), PKC δ ([1]; IC50 relative to βI (=1)): 3.1; IC50 [2]: 22 ± 3 nM; Selectivity (Compound E), PKC ζ ([2]; IC50 relative to βI (=1)): 2.8; Selectivity (Compound E), PKC θ ([3]; IC50 relative to βI (=1)): 1775; Selectivity (Compound E), PKC ε ([4]; IC50 relative to βI (=1)): 287; Selectivity (Compound E), PKC γ ([5]; IC50 relative to βI (=1)): 550; Selectivity (Compound E), PKC η ([6]; IC50 relative to βI (=1)): 1650; IC50 [7]: 8 ± 0.5 nM; Selectivity (Compound E), PKC βI ([7]; IC50 relative to βI (=1)): 1; Selectivity (Compound E), PKC ι ([8]; IC50 relative to βI (=1)): 94; IC50 [9]: 3100 ± 200 nM; Selectivity (Compound E), PKC α ([9]; IC50 relative to βI (=1)): 387 |
| 18 ± 2 | 1 | 200 | 761 | 489 | 500 | 683 | 172 | 26 | 944 | CSCC[C@H](NC(=O)[C@H](Cc1ccccc1)NC(=O)[C@H](CNC(=O)CNC(=O)c1ccc([N+](=O)[O-])cc1)NC(=O)CNC(=O)[C@H](CCC(N)=O)NC(=O)[C@H](CCCNC(=N)N)NC(=O)[C@H](CCCNC(=N)N)NCc1cccc(O)c1O)C(=O)N[C@@H](Cc1ccc(O)cc1)C(=O)N[C@@H](Cc1ccccc1)C(=O)NCCS [Compound F] (H-[X1]RQG[Dap]([Gly-Benzoyl(4-NO2)])FMYF-Cysteamide) | Ki ([1]; versus peptide substrate): 8 ± 1 nM |
| 5200 ± 100 | 693 | 1 | 2227 | 4600 | 5093 | 2040 | 730 | 1493 | 6333 | CSCC[C@H](NC(=O)[C@H](Cc1ccccc1)NC(=O)[C@H](CNC(=O)CNC(=O)c1ccc([N+](=O)[O-])cc1)NC(=O)CNC(=O)[C@H](CCC(N)=O)NC(=O)[C@H](CCCNC(=N)N)NC(=O)[C@H](CCCNC(=N)N)N(Cc1cccc(O)c1O)Cc1cccc(O)c1O)C(=O)N[C@@H](Cc1ccc(O)cc1)C(=O)N[C@@H](Cc1ccccc1)C(=O)NCCS [Compound G] (X2-RQG[Dap]([Gly-Benzoyl(4-NO2)])FMYF-Cysteamide) | – |
| – | – | – | – | – | – | – | – | – | – | CN(C)CCCn1cc(C2=C(c3c[nH]c4ccccc34)C(=O)NC2=O)c2ccccc21 [Gö6850] | Fold selectivity (IC50), PKC β1 [10]: 2 fold; Fold selectivity (IC50), PKC ε [11]: 16 fold; Fold selectivity (IC50), PKC δ [12]: 25 fold; IC50 ([13]; literature value, read-out: IC50 of the most potently inhibited isoform, PKC α (in parentheses)): 8.4 nM; Fold selectivity (IC50), PKC α ([13]; literature values, relative to most potently inhibited isoform (=1)): 1 fold; Fold selectivity (IC50), PKC ζ [14]: 690 fold |
